# Reference: US12577238B2, “Compositions and methods for modulating inflammatory and degenerative disorder” (University of Southern California, priority 2018, dated 2026)
# “Also recorded” adds a separate entry of the source.
# Key:
# gp130 homodimers = target: T1, gp130 homodimers (Homo sapiens, UniProt P40189); assay: Tagged gp130 homodimer detection in 293T cells; format: cell-based; conditions: tagged gp130 in 293T cells
# T1 construct: Myc; expressed in transfected cells; host or cells: 293T
# T1 sequence (P40189 23-918) 1: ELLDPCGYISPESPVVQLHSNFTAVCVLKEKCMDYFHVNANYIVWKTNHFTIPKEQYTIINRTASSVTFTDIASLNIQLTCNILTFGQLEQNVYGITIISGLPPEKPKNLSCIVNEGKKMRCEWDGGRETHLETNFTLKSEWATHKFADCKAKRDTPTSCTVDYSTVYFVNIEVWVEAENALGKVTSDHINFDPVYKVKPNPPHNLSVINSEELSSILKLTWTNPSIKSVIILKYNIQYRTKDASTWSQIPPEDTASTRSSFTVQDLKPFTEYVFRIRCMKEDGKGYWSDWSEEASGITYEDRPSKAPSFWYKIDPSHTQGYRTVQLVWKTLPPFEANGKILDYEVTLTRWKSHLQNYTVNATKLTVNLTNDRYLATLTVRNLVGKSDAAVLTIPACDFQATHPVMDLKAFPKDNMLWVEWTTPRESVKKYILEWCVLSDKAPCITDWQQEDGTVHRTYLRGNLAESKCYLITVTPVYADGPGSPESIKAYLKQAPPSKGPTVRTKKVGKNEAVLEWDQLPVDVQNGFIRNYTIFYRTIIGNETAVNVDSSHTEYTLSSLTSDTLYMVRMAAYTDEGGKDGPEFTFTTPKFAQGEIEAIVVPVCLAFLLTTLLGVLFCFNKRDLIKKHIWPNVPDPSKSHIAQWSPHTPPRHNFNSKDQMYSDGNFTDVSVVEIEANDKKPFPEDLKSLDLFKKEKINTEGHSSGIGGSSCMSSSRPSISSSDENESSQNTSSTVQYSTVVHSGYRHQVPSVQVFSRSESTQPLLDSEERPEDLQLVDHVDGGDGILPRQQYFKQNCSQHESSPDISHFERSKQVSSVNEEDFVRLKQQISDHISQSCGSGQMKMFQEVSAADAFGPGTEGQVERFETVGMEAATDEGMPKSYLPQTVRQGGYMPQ
# T1 sequence (P40189 23-918) 2: T1 sequence (P40189 23-918) 1
# Experimental: Based on this, it was hypothesized that RCGD 423 acts through gp130 by promoting stable homodimers in the absence of ligand. To confirm that RCGD 423 acts through gp130, the gp130 null cell line Ba/F3 cells was used. Ba/F3 cells were transfected with either full-length gp130 or a mutant gp130 lacking domain 2 (ΔD2), which contains the predicted binding site for RCGD 423 (FIG. 7). […] To verify the specificity of RCGD 423 in vivo, the compound was injected into rat knees in the presence of the small molecule gp130 inhibitor SC144 or a blocking antibody specific for domain 2 of gp130. […] The ability of RCGD 423 to act via inducing formation of gp130 homodimers was then examined by expressing tagged versions of gp130 in 293T cells. In this system, only homodimeric complexes can contain both tagged versions of gp130 (FIG. 9).
# [1] = tested on: adult pig articular chondrocytes; assay: Western blot of signaling proteins (pSTAT3, MYC, MAPK, AKT, NF-κB) in pig articular chondrocytes; format: cell-based
# Experimental: (A) Class 1 molecules (marked by red arrows) activate STAT3 and MYC signaling pathways wile Class 2 molecules (blue arrows) have no stimulatory effects on STAT3 and MYC signaling in chondrocytes as determined by western blot analysis. (B) Structures of the most prominent Class 1 and Class 2 molecules. […] All drugs were tested at 10 μM and assessed using Western Blot.
# All drugs tested at 10 μM and assessed using Western Blot.
# To begin to address the mechanism of action of RCGD 423, adult pig chondrocytes were incubated with the drug, IL-6 family cytokines or the pro-catabolic cytokines TNF-α and IL-1β and measured levels of various proteins downstream of these cytokines that are known to drive catabolic responses (FIG. 3).
# Firstly, RCGD 423 was a hit from a library; this made the depth of the discovery surrounding the technology less comprehensive. Additionally, the physical properties of RCGD 423 (solubility, potency, functional groups) could be improved. Significant gains in these areas could potentially result in a first-in-class injectable for the treatment of post-traumatic OA. Moreover, the potential risks associated with promoting MYC stabilization and proliferation in gp130^+ cells as well as large increases in active STAT3 protein was of concern. […] These compounds were then screened in adult pig articular chondrocytes and cartilage explants, seeking compounds that could inhibit the catabolic effects of OSM but not drive increases in MYC and pSTAT3 protein levels. […] Together, these preliminary data identify CX-011 (B8) as a highly anti-inflammatory, anti-catabolic alternative to RCGD 423, with increased “drug-like” properties and reduced potential molecular liabilities.
# OSMR and gp130 = target: T2, OSMR and gp130 (Homo sapiens, UniProt P40189); assay: Receptor competition, gp130-Flag pull-down, OSMR; format: cell-based; conditions: in the presence of OSM; IP-FLAG, WB-OSMR
# T2 construct: FLAG; expressed in transfected cells; host or cells: adult human chondrocytes
# T2 sequence (P40189 23-918): T1 sequence (P40189 23-918) 1
# Experimental: Adult human chondrocytes transfected with gp130-Flag were incubated with various concentrations of RCGD 423 in the presence of IL-6 or OSM; levels of immoprecipitated IL-6R or OSMR were used to calculate the dissociation constant (Kd).
# Adult human chondrocytes; IP-FLAG AB (transfected with gp130 FLAG plasmid), WB-OSMR.
# This property would be of great interest due to the pro-inflammatory and pro-catabolic effects of these cytokines in the joint space. […] To assess whether RCGD 423 could directly compete for gp130 occupancy, human adult articular chondrocytes were transfected with tagged gp130 and then pulled down associated proteins±RCGD 423 and/or IL-6.
# [2] = Rat model of degenerative osteoarthritis (partial meniscectomy); format: in vivo
# Experimental: In this system, 50% of the meniscus is surgically removed, promoting joint instability similar to what is commonly observed in human OA and degeneration of articular cartilage in 3-6 weeks (FIGS. 12A and B). RCGD 423 loaded onto PLGA (poly(lactic-co-glycolic acid)) microspheres for slow release, or microspheres alone, were injected into the joint space at the time of surgery and 3 weeks later.
# [3] = tested on: human fetal articular chondrocytes; assay: Alkaline phosphatase / hypertrophy in fetal articular chondrocytes; format: cell-based
structure (smiles),measurement,setting,value
Brc1ccc(Nc2nc(-c3ccccc3)cs2)cc1 [RCGD 423],detection of gp130 homodimers (gp130-Myc),gp130 homodimers,only in the presence of RCGD 423 could gp130 homodimers be detected; also recorded: gp130-Myc was only detectable in the presence of RCGD 423
same,levels of active STAT3 (pSTAT3) and MYC proteins,"[1]; Western blot, analogs at 10 μM",increased levels of active STAT3 and MYC proteins; also recorded: shared increase in active STAT3 (pSTAT3) and MYC proteins
same,"activation of the MAPK, AKT and NF-κB pathways",[1]; adult pig articular chondrocytes,did not evidence the same result; also recorded: does not
same,competition with OSMR for gp130 occupancy / OSMR-gp130 interaction,OSMR and gp130,directly competes with OSMR and IL-6R for gp130 occupancy
same,OARSI scores,"[2]; 6 weeks, loaded onto PLGA microspheres, injected into joint space at surgery and 3 weeks later",highly significantly lower OARSI scores
same,expression of proteolytic (catabolic) enzymes after joint injury,[2]; rat OA model,decreased the expression of proteolytic enzymes; also recorded: decreased the levels of catabolic enzymes
same,"formation, size and maturity of osteophytes",[2]; rats following partial meniscectomy,inhibited both the formation and maturity of osteophytes; also recorded: reduced the size and maturity of osteophytes
same,"increases in alkaline phosphatase, a marker of hypertrophy",[3],could prevent increases in alkaline phosphatase; also recorded: ability of the compound to inhibit hypertrophy was confirmed
